Source: patent US20060063764A1, “Insect repellents” (Givaudan SA, priority 2002, published 2006)
“And” between values parts separate entries of the source, which are not always exact repeats. Equal values may be shown once.

System: German cockroaches (Blatella Germanica)
Experiment: Cockroach repellency on partially treated melamine-formaldehyde laminate surface (harbourage choice test)
Assay type: in vivo
Conditions: 20 mg/m^2; for Percentage Present on treated section, Average / Percentage Present on untreated section, Average: Average of days 1, 2, 3; for Number of Cockroaches present, Treated Section / Number of Cockroaches present, Untreated Section / Number of Cockroaches, Dead: single replicate, n = 20; for Number of Cockroaches present, Treated Section, Total of 4 replicates / Number of Cockroaches present, Untreated Section, Total of 4 replicates / Number of Cockroaches, Dead, Total of 4 replicates: total of 80
Description: The effectiveness of compounds of formula I as insect repellents is determined using German cockroaches exposed to a melamine-formaldehyde laminate surface partially treated/partially untreated with a test compound of formula I.
The study was conducted in an air-conditioned laboratory at a temperature of 22°±2° ° C. under a normal day/night cycle, using German cockroaches (Blatella Germanica) of mixed sex and age. The study was conducted over a 3 day period and the repellent effectiveness was assessed 1, 2 and 3 days after cockroach introduction.
One half of a rectangle of laminate 40 cm×30 cm was treated at 20 mg/m^2 of a test compound of formula I. This was achieved by soaking a paper wipe (“Rag on a Roll” ca 20 cm×20 cm) in a solution of the test compound in ethanol, squeezing out the excess liquid and wiping over the surface to give the required coverage. This was checked by weighing the cloth after application. The surface was allowed to dry. The other half of the rectangle was wiped with ethanol alone (untreated surface).
The treated laminate rectangle was placed on the bench and a plastic container was placed on the rectangle. This had been treated with “Fluon” (trade mark), a sprayable fluoropolymer, to prevent cockroach escape.
Two sheets of laminate (10 cm×10 cm) were placed on the laminate, one on the treated surface and one on the untreated surface. This acted as a cockroach harbourage. The laminate sheet to be used in the treated section was treated at the same rate as the treated laminate. The laminate was placed on two 1 cm high bottle tops to allow cockroaches access under the laminate.
20 German cockroaches were added (5 adults and 15 nymphs) to the centre of the laminate. No food and water was supplied for these cockroaches.
At 1, 2 and 3 days after cockroach introduction the number of cockroaches under each harbourage was counted. After each count the harbourage position was changed to avoid the possibility of habituation to one location, the harbourages were replaced and new cockroaches were added to replace any dead cockroaches.
The above was repeated 3 times to provide a total of 4 replicates.
The methodology of Example 2 was repeated for all of the compounds set forth in Example 1.

[1] = 1 day after cockroach introduction
[2] = 2 days after cockroach introduction
[3] = 3 days after cockroach introduction

In the case of CC(C)[C@@H]1CC[C@@H](C)C[C@H]1OC(=O)Nc1ccccc1, the “Percentage Present on treated section” value (1 day after treatment) is reported as 2.5%, the “Percentage Present on untreated section” value (1 day after treatment) is reported as 97.5% and the “Percentage Present on treated section” value (2 days after treatment) is reported as 3.7%. The “Percentage Present on untreated section” value (2 days after treatment) was 96.3%, the “Percentage Present on treated section” value (3 days after treatment) was 2.5% and the “Percentage Present on untreated section” value (3 days after treatment) was 97.5%. The “Percentage Present on treated section, Average” value was 2.9% and the “Percentage Present on untreated section, Average” value was 97.1%.
With CC(C)CNC(=O)O[C@@H]1C[C@H](C)CC[C@H]1C(C)C the “Percentage Present on treated section” value (1 day after treatment) was 31.3%, the “Percentage Present on untreated section” value (1 day after treatment) was 68.7% and the “Percentage Present on treated section” value (2 days after treatment) was 17.5%. The “Percentage Present on untreated section” value (2 days after treatment) was 82.5%, the “Percentage Present on treated section” value (3 days after treatment) was 16.3% and the “Percentage Present on untreated section” value (3 days after treatment) was 83.7%. The “Percentage Present on treated section, Average” value was 21.7% and the “Percentage Present on untreated section, Average” value was 78.3%.
With CCN(CC)C(=O)O[C@@H]1C[C@H](C)CC[C@H]1C(C)C the “Percentage Present on treated section” value (1 day after treatment) was 7.6%, the “Percentage Present on untreated section” value (1 day after treatment) was 92.4% and the “Percentage Present on treated section” value (2 days after treatment) was 2.5%. The “Percentage Present on untreated section” value (2 days after treatment) was 97.5%, the “Percentage Present on treated section” value (3 days after treatment) was 2.5% and the “Percentage Present on untreated section” value (3 days after treatment) was 97.5%. For the same compound, the “Percentage Present on treated section, Average” value was 4.2% and the “Percentage Present on untreated section, Average” value was 95.8%.
For CCCCNC(=O)O[C@@H]1C[C@H](C)CC[C@H]1C(C)C, the “Percentage Present on treated section” value (1 day after treatment) was 6.3%, the “Percentage Present on untreated section” value (1 day after treatment) was 93.7% and the “Percentage Present on treated section” value (2 days after treatment) was 17.5%. The “Percentage Present on untreated section” value (2 days after treatment) was 82.5%, the “Percentage Present on treated section” value (3 days after treatment) was 7.5% and the “Percentage Present on untreated section” value (3 days after treatment) was 92.5%. For the same compound, the “Percentage Present on treated section, Average” value was 10.5% and the “Percentage Present on untreated section, Average” value was 89.6%.
For CNC(=O)O[C@@H]1C[C@H](C)CC[C@H]1C(C)C [Methyl-Carbamic Acid (−)-Menthyl Ester, Methyl-carbamic acid (−)-menthyl ester], the “Number of Cockroaches present, Treated Section” value [1] was 0 (2×) and 3 and 1, the “Number of Cockroaches present, Untreated Section” value [1] was 20 and 19 (2×) and 17 and the “Number of Cockroaches, Dead” value [1] was 0 (3×) and 1. The “Number of Cockroaches present, Treated Section, Total of 4 replicates” value [1] was 4, the “Number of Cockroaches present, Untreated Section, Total of 4 replicates” value [1] was 75 and the “Number of Cockroaches, Dead, Total of 4 replicates” value [1] was 1. The “Number of Cockroaches present, Treated Section” value [2] was 1 (2×) and 0 (2×), the “Number of Cockroaches present, Untreated Section” value [2] was 19 (3×) and 20 and the “Number of Cockroaches, Dead” value [2] was 0 (3×) and 1. For the same compound, the “Number of Cockroaches present, Treated Section, Total of 4 replicates” value [2] was 2, the “Number of Cockroaches present, Untreated Section, Total of 4 replicates” value [2] was 77 and the “Number of Cockroaches, Dead, Total of 4 replicates” value [2] was 1. For the same compound, the “Number of Cockroaches present, Treated Section” value [3] was 0 (3×) and 1, the “Number of Cockroaches present, Untreated Section” value [3] was 20 (3×) and 19 and the “Number of Cockroaches, Dead” value [3] was 0. The “Number of Cockroaches present, Treated Section, Total of 4 replicates” value [3] was 1, the “Number of Cockroaches present, Untreated Section, Total of 4 replicates” value [3] was 79 and the “Number of Cockroaches, Dead, Total of 4 replicates” value [3] was 0.
With CNC(=O)O[C@@H]1C[C@H](C)CC[C@H]1C(C)C [drawing 13] the “Percentage Present on treated section” value (1 day after treatment) was 5.1%, the “Percentage Present on untreated section” value (1 day after treatment) was 94.9% and the “Percentage Present on treated section” value (2 days after treatment) was 2.5%. The “Percentage Present on untreated section” value (2 days after treatment) was 97.5%, the “Percentage Present on treated section” value (3 days after treatment) was 1.3% and the “Percentage Present on untreated section” value (3 days after treatment) was 98.7%. The “Percentage Present on treated section, Average” value was 3.0% and the “Percentage Present on untreated section, Average” value was 97.0%.
In the case of COC(=O)CCNC(=O)O[C@@H]1C[C@H](C)CC[C@H]1C(C)C, the “Percentage Present on treated section” value (1 day after treatment) is reported as 11.4%, the “Percentage Present on untreated section” value (1 day after treatment) is reported as 88.6% and the “Percentage Present on treated section” value (2 days after treatment) is reported as 2.5%. For the same compound, the “Percentage Present on untreated section” value (2 days after treatment) was 97.5%, the “Percentage Present on treated section” value (3 days after treatment) was 10.0% and the “Percentage Present on untreated section” value (3 days after treatment) was 90.0%. For the same compound, the “Percentage Present on treated section, Average” value was 8.0% and the “Percentage Present on untreated section, Average” value was 92.0%.
CC(C)[C@@H]1CC[C@@H](C)C[C@H]1OC(=O)N1CCCCC1 was tested, and the “Percentage Present on treated section” value (1 day after treatment) was 10.0%, the “Percentage Present on untreated section” value (1 day after treatment) was 90.0% and the “Percentage Present on treated section” value (2 days after treatment) was 11.3%. For the same compound, the “Percentage Present on untreated section” value (2 days after treatment) was 88.7%, the “Percentage Present on treated section” value (3 days after treatment) was 3.9% and the “Percentage Present on untreated section” value (3 days after treatment) was 96.1%. The “Percentage Present on treated section, Average” value was 8.4% and the “Percentage Present on untreated section, Average” value was 91.6%.
CC(C)[C@@H]1CC[C@@H](C)C[C@H]1OC(=O)N1CCCC1 was tested, and the “Percentage Present on treated section” value (1 day after treatment) was 2.5%, the “Percentage Present on untreated section” value (1 day after treatment) was 97.5% and the “Percentage Present on treated section” value (2 days after treatment) was 7.5%. The “Percentage Present on untreated section” value (2 days after treatment) was 92.5%, the “Percentage Present on treated section” value (3 days after treatment) was 12.7% and the “Percentage Present on untreated section” value (3 days after treatment) was 87.3%. For the same compound, the “Percentage Present on treated section, Average” value was 7.6% and the “Percentage Present on untreated section, Average” value was 92.4%.
In the case of CC(C)[C@@H]1CC[C@@H](C)C[C@H]1OC(=O)N1CCOCC1, the “Percentage Present on treated section” value (1 day after treatment) is reported as 17.5%, the “Percentage Present on untreated section” value (1 day after treatment) is reported as 82.5% and the “Percentage Present on treated section” value (2 days after treatment) is reported as 17.5%. The “Percentage Present on untreated section” value (2 days after treatment) was 82.5%, the “Percentage Present on treated section” value (3 days after treatment) was 25.0% and the “Percentage Present on untreated section” value (3 days after treatment) was 75.0%. For the same compound, the “Percentage Present on treated section, Average” value was 20.0% and the “Percentage Present on untreated section, Average” value was 80.0%.
